The target of assay [1] is T1, Sodium-dependent serotonin transporter (Rattus norvegicus, UniProt P31652). Kind of assay: Inhibition of rat brain Serotonin transporter as accumulation of [3H]5-HT. The assay is classed as functional.
The target of assay [2] is Monoamine transporters; serotonin & dopamine (Rattus norvegicus) (UniProt P31652+P23977). Kind of assay: Ratio between Dopamine transporter and Serotonin transporter uptake. Type of assay: protein assay.
The target of assay [3] is T2, Sodium-dependent dopamine transporter (Rattus norvegicus, UniProt P23977). Kind of assay: Inhibition of rat brain dopamine transporter as accumulation of [3H]DA. The assay is classed as functional.
T2 sequence (P23977 whole entry): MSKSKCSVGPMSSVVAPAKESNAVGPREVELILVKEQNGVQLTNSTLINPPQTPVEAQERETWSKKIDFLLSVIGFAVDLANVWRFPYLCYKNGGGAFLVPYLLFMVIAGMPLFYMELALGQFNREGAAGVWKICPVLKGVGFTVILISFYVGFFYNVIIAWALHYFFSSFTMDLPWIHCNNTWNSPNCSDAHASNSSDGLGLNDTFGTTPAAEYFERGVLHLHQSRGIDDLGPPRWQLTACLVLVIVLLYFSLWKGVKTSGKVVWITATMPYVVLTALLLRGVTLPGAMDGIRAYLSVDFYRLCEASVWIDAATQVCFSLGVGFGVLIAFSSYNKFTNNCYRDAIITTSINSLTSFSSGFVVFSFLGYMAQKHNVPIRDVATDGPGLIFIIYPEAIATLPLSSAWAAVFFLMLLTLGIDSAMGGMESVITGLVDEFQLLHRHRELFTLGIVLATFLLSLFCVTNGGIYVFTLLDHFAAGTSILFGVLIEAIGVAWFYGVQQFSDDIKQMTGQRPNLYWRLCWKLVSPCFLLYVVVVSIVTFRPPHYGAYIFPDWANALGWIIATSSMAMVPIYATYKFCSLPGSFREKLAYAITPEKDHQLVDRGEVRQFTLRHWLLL
Assay [4] has as its target Monoamine transporters; Norepinephrine & serotonin (Rattus norvegicus) (UniProt P31652+Q9WTR4). Kind of assay: Ratio between Serotonin transporter and Norepinephrine transporter uptake. The assay is classed as protein assay.
Assay [5] has as its target T2, Sodium-dependent dopamine transporter. Kind of assay: Inhibition of rat brain Dopamine transporter uptake as [3H]DA accumulation. Type of assay: functional.
The target is the same in assay [6]. Kind of assay: Inhibition of [3H]WIN-35428 binding to rat brain dopamine transporter.
In assay [7] the target is T3, Norepinephrine transporter (Rattus norvegicus, UniProt Q9WTR4). Kind of assay: Inhibition of rat brain Norepinephrine transporter as accumulation of [3H]NE. Type of assay: functional.
T3 sequence (Q9WTR4 whole entry): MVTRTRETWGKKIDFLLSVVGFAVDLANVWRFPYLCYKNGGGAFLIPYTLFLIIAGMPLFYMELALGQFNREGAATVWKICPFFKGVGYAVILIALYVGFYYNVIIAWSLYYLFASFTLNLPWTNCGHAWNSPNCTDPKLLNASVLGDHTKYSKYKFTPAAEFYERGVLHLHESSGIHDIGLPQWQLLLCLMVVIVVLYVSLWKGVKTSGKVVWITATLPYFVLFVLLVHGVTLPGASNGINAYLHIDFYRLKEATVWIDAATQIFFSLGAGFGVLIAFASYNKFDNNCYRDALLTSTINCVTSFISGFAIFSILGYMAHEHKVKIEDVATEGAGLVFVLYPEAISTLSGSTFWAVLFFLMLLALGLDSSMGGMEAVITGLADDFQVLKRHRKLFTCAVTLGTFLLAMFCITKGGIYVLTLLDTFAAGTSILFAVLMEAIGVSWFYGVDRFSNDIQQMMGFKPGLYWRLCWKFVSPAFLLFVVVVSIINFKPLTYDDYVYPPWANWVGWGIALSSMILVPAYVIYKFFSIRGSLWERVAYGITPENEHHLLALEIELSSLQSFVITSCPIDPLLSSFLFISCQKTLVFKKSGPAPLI
Assay [8] concerns the target T1, Sodium-dependent serotonin transporter. Kind of assay: Inhibition of rat brain Serotonin transporter uptake as [3H]5-HT accumulation.
Assay [9] has as its target Monoamine transporters; Norepininephrine & dopamine (Rattus norvegicus) (UniProt P23977+Q9WTR4). Kind of assay: Ratio between Dopamine transporter and Norepinephrine transporter uptake. The assay is classed as protein assay.
Assay [10] has as its target T3, Norepinephrine transporter. Kind of assay: Inhibition of rat brain Norepinephrine transporter as accumulation of [3H]-NE. Type of assay: functional.

Here are results for 14 molecules from ChEMBL document CHEMBL1140340 (J Med Chem, 2005).

Broadly, the Ki is a measure of affinity in units of concentration, obtained from inhibition or displacement. A high value points to weaker binding. One may read the IC50 as the concentration needed to halve the response being measured. A lower IC50 goes with higher potency.

The structures appear in SMILES notation.

T1 sequence (P31652 whole entry): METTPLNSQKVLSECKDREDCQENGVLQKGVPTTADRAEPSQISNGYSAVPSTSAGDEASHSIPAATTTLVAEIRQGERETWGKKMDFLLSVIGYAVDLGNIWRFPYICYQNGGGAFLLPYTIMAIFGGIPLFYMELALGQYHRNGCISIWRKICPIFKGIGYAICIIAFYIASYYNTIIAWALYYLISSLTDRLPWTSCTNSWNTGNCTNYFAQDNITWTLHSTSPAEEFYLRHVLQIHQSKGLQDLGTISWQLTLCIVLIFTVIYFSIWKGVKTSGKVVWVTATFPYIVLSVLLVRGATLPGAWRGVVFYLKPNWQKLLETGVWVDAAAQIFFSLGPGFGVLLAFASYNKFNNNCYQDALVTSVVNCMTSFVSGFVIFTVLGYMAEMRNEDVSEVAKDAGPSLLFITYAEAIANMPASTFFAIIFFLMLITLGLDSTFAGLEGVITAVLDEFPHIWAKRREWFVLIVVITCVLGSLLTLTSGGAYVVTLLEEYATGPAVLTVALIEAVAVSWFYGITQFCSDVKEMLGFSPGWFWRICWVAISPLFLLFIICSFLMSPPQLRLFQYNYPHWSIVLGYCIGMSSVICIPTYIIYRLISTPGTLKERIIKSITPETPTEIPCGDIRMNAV
Monoamine transporters; serotonin & dopamine (Rattus norvegicus), sequence (P23977 whole entry, looked up): as the sequence (P23977 whole entry) above
Monoamine transporters; serotonin & dopamine (Rattus norvegicus), sequence (P31652 whole entry, looked up): as the sequence (P31652 whole entry) above

`OC1COC(C(c2ccccc2)c2ccccc2)CC1NCc1ccccc1` (single isomer, unassigned): the Ki turned out to be 3970 nM in [1], 716 nM in [3] and 2890 nM in [10]. The Ratio in [2] was 0.18; in assay [4] it was 1.4; in assay [9] it was 0.25. The IC50 in assay [5] stood at 962 nM; in [6] it was 1250 nM; in assay [7], 3220 nM; in assay [8], 4420 nM.
On to `O[C@@H]1C[C@@H](C(c2ccccc2)c2ccccc2)OC[C@H]1NCc1ccccc1`, for which the Ki in [1] turned out to be 707 nM; in assay [3], 446 nM. The IC50 in [5] turned out to be 600 nM; in assay [8], 862 nM.
`COc1ccc(CNC2COC(C(c3ccccc3)c3ccccc3)CC2O)cc1` (single isomer, unassigned) showed a Ki in [10] of 412 nM.
Consider `O[C@@H]1C[C@@H](C(c2ccccc2)c2ccccc2)OC[C@H]1NCCc1ccc(F)cc1`, for which the Ki in [1] is 3210 nM; in [3] it was 317 nM; in assay [10], 406 nM. The values for the Ratio in assay [2], in assay [4] and in assay [9] were 0.099, 7.9 and 0.78, respectively. Besides, the concentration for half-maximal inhibition (IC50) was 427 nM in assay [5], 1050 nM in [6], 439 nM in [7] and 3570 nM in assay [8].
Regarding `O[C@@H]1CO[C@H](C(c2ccccc2)c2ccccc2)C[C@H]1NCc1ccccc1`, the Ki in assay [1] stood at 9560 nM; in assay [3], 1940 nM; in assay [10], 296 nM. Also, the Ratio in assay [2] turned out to be 0.2; in assay [4] it was 32; in assay [9], 6.6. Further, the IC50 in [5] worked out at 2610 nM; in [6], 4640 nM; in [7] it was 336 nM; in assay [8], 10600 nM.
In the case of `COc1ccc(CN[C@@H]2CO[C@H](C(c3ccccc3)c3ccccc3)C[C@H]2O)c(OC)c1`, the Ki in assay [1] was 20.8 nM; in assay [3], 528 nM; in [10] it was 95 nM. Further, the Ratio in [2] came to 25; in [4], 0.22; in [9], 5.6. The IC50 worked out at 710 nM in assay [5], 1060 nM in [6], 115 nM in assay [7] and 24 nM in [8].
Regarding `OC1CC(C(c2ccccc2)c2ccccc2)OCC1NCCc1ccc(F)cc1` (single isomer, unassigned), the Ki in assay [1] turned out to be 2650 nM; in assay [3], 162 nM; in [10], 71 nM. Besides, the Ratio in assay [2] worked out at 0.061; in assay [4], 37; in assay [9], 2.3. For the same molecule, the IC50 in [5] is 218 nM; in assay [6], 443 nM; in [7] it was 77.3 nM; in [8], 2950 nM.
As to `COc1ccc(CN[C@@H]2CO[C@H](C(c3ccccc3)c3ccccc3)C[C@H]2O)cc1`, in assay [10], the Ki is 15.8 nM.
On to `COc1ccc(CN[C@@H]2C[C@@H](C(c3ccccc3)c3ccccc3)OC[C@H]2O)cc1`, for which the Ki in assay [1] came out at 793 nM; in assay [3] it was 611 nM; in assay [10], 686 nM. The Ratio worked out at 0.77 in [2], 1.2 in assay [4] and 0.89 in [9]. The IC50 in [5] amounted to 822 nM; in assay [6] it was 771 nM; in [7], 765 nM; in assay [8] it was 1070 nM.
As for `OC1CC(C(c2ccccc2)c2ccccc2)OCC1NCc1ccc(F)cc1` (single isomer, unassigned), the Ki in assay [1] stood at 5000 nM; in [3] it was 327 nM; in [10], 1050 nM. Further, the Ratio in assay [2] is 0.065; in assay [4], 4.8; in [9], 0.31. Besides, the IC50 in assay [5] came to 440 nM; in [6], 1030 nM; in assay [7] it was 1130 nM; in [8] it was 5560 nM.
Take `COc1cc(CN[C@@H]2CO[C@H](C(c3ccccc3)c3ccccc3)C[C@H]2O)cc(OC)c1`: the Ki in [1] was 19.7 nM; in assay [3] it was 100 nM; in [10], 101 nM. Moreover, the Ratio in assay [2] was 5.1; in [4], 0.2; in assay [9], 0.99. Besides, the IC50 in assay [5] came out at 135 nM; in assay [6], 298 nM; in assay [7], 108 nM; in assay [8], 25.4 nM.
On to `COc1ccc(CNC2CC(C(c3ccccc3)c3ccccc3)OCC2O)cc1` (single isomer, unassigned), for which the Ki stood at 3420 nM in assay [1], 1980 nM in [3] and 1700 nM in assay [10]. Besides, the Ratio came out at 0.58 in assay [2], 2 in assay [4] and 1.2 in assay [9]. The 50% inhibitory concentration (IC50) turned out to be 2670 nM in assay [5], 3750 nM in assay [6], 1840 nM in assay [7] and 3810 nM in assay [8].
In the case of `O[C@@H]1C[C@@H](C(c2ccccc2)c2ccccc2)OC[C@H]1NCc1ccc(F)cc1`, the Ki in assay [1] worked out at 607 nM; in [3] it was 125 nM; in assay [10], 12.2 nM. The Ratio in [2] worked out at 0.21; in assay [4], 50; in assay [9], 10.2. For the same molecule, the IC50 in [5] came out at 169 nM; in [6], 308 nM; in assay [7], 13.3 nM; in assay [8] it was 676 nM.
`OC1CC(C(c2ccccc2)c2ccccc2)OCC1NCc1ccccc1` (single isomer, unassigned): the Ki in [1] was 5500 nM; in assay [3] it was 253 nM. Besides, the half-maximal inhibitory concentration (IC50) amounted to 341 nM in assay [5], 596 nM in assay [6] and 6120 nM in assay [8].
